Among the test systems are 786-0 renal; NCI-H460 lung; CAKI-1 renal; COLO 205 colon; MDA-N; HCT-116 colon; HOP-92 NSCLC; OVCAR-3 ovarian; SK-OV-3 ovarian; A498 renal; U251 CNS; MOLT-4 leukemia; SR leukemia; SF-539 CNS; OVCAR-4 ovarian; MALME-3M melanoma.
Holding throughout (experiment): NCI tumour cell line growth inhibition, 48 h

Eight compounds from PubChem BioAssay (NCI) can be followed below.

Molecules are shown by their SMILES.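 Grown in 96-well plates, cells were treated for 48 hours with each compound at five concentrations. Insufficient inhibition: endpoint recorded as highest concentration tested. TGI: total growth inhibition.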

With `COc1cc2c(cc1OC)C(=O)/C(=C/c1ccc(Cl)cc1)CC2`, the TGI with 786-0 renal, with NCI-H460 lung, in the experiment on CAKI-1 renal, in the experiment with COLO 205 colon, in the experiment on MDA-N and in the experiment on HCT-116 colon was greater than 10 µM each time. Further, the TGI in the experiment on HOP-92 NSCLC, in the experiment on OVCAR-3 ovarian, in the experiment with SK-OV-3 ovarian, in the experiment on A498 renal, in the experiment on U251 CNS and in the experiment on MOLT-4 leukemia was greater than 10 µM throughout. The TGI in the experiment with SR leukemia, in the experiment with SF-539 CNS, in the experiment on OVCAR-4 ovarian and in the experiment with MALME-3M melanoma was greater than 10 µM in each case.

Consider `C[C@H](NC(=O)c1ccc(CNC(=O)/C=C/c2cccc(Oc3ccccc3)c2)cc1)c1ccccc1`, for which the TGI in the experiment on 786-0 renal is greater than 100 µM; in the experiment on NCI-H460 lung, greater than 100 µM; in the experiment on CAKI-1 renal it was 59.5 µM; in the experiment with COLO 205 colon, greater than 100 µM; in the experiment on MDA-N, greater than 100 µM; with HCT-116 colon, greater than 100 µM. Also, the TGI in the experiment on HOP-92 NSCLC, in the experiment on OVCAR-3 ovarian, in the experiment on SK-OV-3 ovarian, in the experiment on A498 renal, with U251 CNS and in the experiment on MOLT-4 leukemia was greater than 100 µM each time. Besides, the TGI in the experiment on SR leukemia is greater than 100 µM; in the experiment on SF-539 CNS it was 67.8 µM; with OVCAR-4 ovarian it was greater than 100 µM; in the experiment with MALME-3M melanoma, greater than 100 µM.

For the compound `CCOC(=O)c1cn2c(n1)sc1c(Cl)c(Cl)ccc12`, the TGI in the experiment on 786-0 renal was 31.2 µM; in the experiment on NCI-H460 lung it was greater than 100 µM; in the experiment with CAKI-1 renal it was 65.3 µM; in the experiment with COLO 205 colon, 19.1 µM; in the experiment on MDA-N it was 3.83 µM; with HCT-116 colon, 33 µM. For the same compound, the TGI with HOP-92 NSCLC was greater than 100 µM; with OVCAR-3 ovarian it was greater than 58.1 µM; in the experiment with SK-OV-3 ovarian, greater than 100 µM; in the experiment with A498 renal, greater than 100 µM; in the experiment on U251 CNS, greater than 100 µM; in the experiment on MOLT-4 leukemia, greater than 40 µM. The TGI in the experiment with SR leukemia is greater than 55.2 µM; with SF-539 CNS, 21.4 µM; in the experiment on OVCAR-4 ovarian, greater than 100 µM; in the experiment on MALME-3M melanoma, 8.92 µM.

On to `Cc1ccc(N(C(=O)Nc2ccccc2)C2=NCC(C)S2)cc1C` (stereo not drawn), for which the TGI with 786-0 renal is 46.6 µM; in the experiment on NCI-H460 lung it was 44.6 µM; in the experiment with CAKI-1 renal, greater than 10 µM; in the experiment with COLO 205 colon it was 41.6 µM; in the experiment on MDA-N it was 31.9 µM; with HCT-116 colon it was 46.5 µM. In addition, the TGI is 43.3 µM in the experiment on HOP-92 NSCLC; 32 µM in the experiment on OVCAR-3 ovarian; greater than 100 µM with SK-OV-3 ovarian; 47.9 µM in the experiment on A498 renal; 51.3 µM in the experiment with U251 CNS; greater than 10 µM in the experiment with MOLT-4 leukemia. Moreover, the TGI in the experiment on SR leukemia is 86 µM; in the experiment on SF-539 CNS, 48.5 µM; in the experiment on OVCAR-4 ovarian it was greater than 100 µM; in the experiment with MALME-3M melanoma it was 40.7 µM.

For `Cn1c2ccc3cc2c(=S)c2cc(ccc21)OCCOCCOCCOCCOCCO3`, the TGI with 786-0 renal, in the experiment on NCI-H460 lung, in the experiment with CAKI-1 renal, in the experiment on COLO 205 colon, with MDA-N and with HCT-116 colon was greater than 10 µM each time. Moreover, the TGI in the experiment on HOP-92 NSCLC, in the experiment on OVCAR-3 ovarian, in the experiment on SK-OV-3 ovarian, in the experiment with A498 renal, in the experiment with U251 CNS and with MOLT-4 leukemia was greater than 10 µM throughout. Also, the TGI with SR leukemia, in the experiment with SF-539 CNS, in the experiment with OVCAR-4 ovarian and with MALME-3M melanoma was greater than 10 µM each time.

Take `Cn1c(O)c(C=Nc2ccccc2[N+](=O)[O-])c(=O)n(C)c1=O`: the TGI in the experiment on 786-0 renal, in the experiment with NCI-H460 lung, with CAKI-1 renal, in the experiment with COLO 205 colon, in the experiment on MDA-N and in the experiment with HCT-116 colon was greater than 100 µM throughout. Moreover, the TGI in the experiment on HOP-92 NSCLC, in the experiment on OVCAR-3 ovarian, in the experiment with SK-OV-3 ovarian, in the experiment on A498 renal, in the experiment with U251 CNS and with MOLT-4 leukemia was greater than 100 µM throughout. Moreover, the TGI with SR leukemia, in the experiment with SF-539 CNS, in the experiment on OVCAR-4 ovarian and with MALME-3M melanoma was greater than 100 µM throughout.

Turning to `C=CCOC(=O)NC1C(OC(C)[C@@H](NC(=O)OCc2ccccc2)C(=O)OC(C)(C)C)OC(COC(C)=O)C(OC(C)=O)C1OC(C)=O` (stereo partly drawn), the TGI in the experiment on 786-0 renal, in the experiment with NCI-H460 lung, in the experiment on CAKI-1 renal, in the experiment with COLO 205 colon, with MDA-N and in the experiment on HCT-116 colon was greater than 100 µM each time. Moreover, the TGI in the experiment with HOP-92 NSCLC, in the experiment with OVCAR-3 ovarian, with SK-OV-3 ovarian, in the experiment with A498 renal, in the experiment with U251 CNS and with MOLT-4 leukemia was greater than 100 µM each time. Also, the TGI in the experiment on SR leukemia, with SF-539 CNS, in the experiment on OVCAR-4 ovarian and in the experiment on MALME-3M melanoma was greater than 100 µM in each case.

For the compound `CN(C)C(=S)/N=c1\ssc(=S)n1Cc1ccccc1`, the TGI is 15.9 µM with 786-0 renal; 22.6 µM in the experiment on NCI-H460 lung; greater than 56.2 µM with CAKI-1 renal; 1.95 µM in the experiment on COLO 205 colon; 1.21 µM in the experiment on MDA-N; 29.6 µM in the experiment with HCT-116 colon. Further, the TGI with HOP-92 NSCLC was 7.63 µM; in the experiment on OVCAR-3 ovarian it was 0.512 µM; with SK-OV-3 ovarian, 5.27 µM; with A498 renal, greater than 69.5 µM; with U251 CNS, 18.6 µM; with MOLT-4 leukemia it was 29 µM. For the same compound, the TGI in the experiment on SR leukemia was 37.3 µM; with SF-539 CNS, 1.49 µM; with OVCAR-4 ovarian, 30.2 µM; with MALME-3M melanoma it was 30.7 µM.
